Laboratory results: patent US20030096264A1, “Multi-parameter high throughput screening assays (MPHTS)” (Psychiatric Genomics, Inc., priority 2001, published 2003)

Tests used:
NBFL cell line = assay: RT-PCR validation of differential expression in NBFL cells treated with valproate; type: cell-based, human; conditions: valproate treated vs untreated, normalized to GAPDH
Procedure: To validate differential expression measurements that were obtained using microarrays, expression levels were also measured using a reverse transcription polymerase chain reaction (RT-PCR) assay for five genes having the highest expression ratio in Table 3: nidogen (SEQ ID NO:25; σ=1.7), silver (SEQ ID NO:26; σ=1.6), dopamine β-hydroxylase (SEQ ID NO:53; σ=-1.7), dopa decarboxylase (SEQ ID NO:54; σ=−2) and chromogranin B (SEQ ID NO:55; σ=−2.1). These RT-PCR experiments were performed according to routine methods that are known in 10 the art. Briefly, RNA from the NBFL cell line treated with or without valproate was primed with oligo-dT and reverse transcribed. The resultant cDNA was subjected to either 25 or 30 rounds of PCR amplification, depending on the absolute expression level of the gene tested. The amount of PCR product generated from each sample was normalized to the amount of GAPDH amplified from each sample and a fold-change relative to valproate treatment was calculated. β-actin was used as an additional control.
The results from these experiments are shown graphically in FIG. 3. As expected, no change in β-actin (B-ACT) expression was detected (+/− one-fold) when cells were treated with valproate. However, a greater than 2-fold change in expression levels was measured for each of the five other genes tested: nidogoen (NID), silver (SIL), dopamine β-hydroxylase (DBH), dopa decarboxylase (DDC) and chromogranin B (CG-B).

rat hippocampus = assay: In vivo expression profile in hippocampus of rats treated with valproate; conditions: three weeks
Procedure: Specifically, in these experiments rats were treated with valproate, and gene expression levels in the hippocampus of each rat were measured for a plurality of different genes.
In more detail, twenty rats were divided into two groups, containing ten individuals each. One group of ten rats was used as the control group, whereas the other group functioned as the experimental group. Each rat in the experimental group was injected twice daily with 250 mg valproate for each kilogram of the rat's body mass. Each rat in the control group was similarly injected, but with a vehicle that contained no active ingredient. After three weeks dosing, the rats were sacrificed and their brains removed. Each rat's brain was divided in half. The hippocampus was then removed from each half and flash frozen. The half hippocampus tissue from the rats in each group was combined and total RNA was extracted from the tissue using TriReagent (Invitrogen Corp., Carlsbad Calif.) following the manufacturer's instructions. mRNA was purified with Oligotext (Qiagen Inc., Valencia Calif.) following the manufacturer's recommended protocol. mRNA quality and concentration was determined using the Agilent Bioanalyzer.
For expression profile analysis, mRNA from the pooled tissues of the control group was measured with Cy3 dye, and mRNA from the pooled tissues of the experimental group was measured with Cy5 dye. The labeled probes were then mixed and hybridized to a Rat Tox3 microarray (Incyte Genomics, Palo Alto Calif.). The relative signal intensity from each fluorescent dye was measured for each element (i.e., for each “gene”) on the microarray, normalized for differences, and the relative difference in expression level determined.
The relative differences in expression levels for various genes are plotted in FIG. 4. Specifically, each point on the plot represents a gene whose expression level was measured in both the experimental and control groups. Each point's position along the horizontal axis indicates the relative Cy3 signal intensity measured for that gene and reflects, therefore, the gene's expression in rats that were not treated with valproate. A point's position along the vertical axis indicates the relative Cy5 signal intensity measured for the corresponding gene, reflecting the gene's expression in the hippocampus of rats that were treated with valproate. […] By contrast, changes by at least a factor of 1.5 (i.e., θ≧1.5) indicate significant changes in expression in response to the valproate treatment (identified using a Rat Toxicology array from Incyte, Palo Alto, Calif.). These genes are listed in Table 5, below, along with GenBank Accession number for those genes. Again, a cDNA sequence for each gene listed in Table 5 is also provided in the accompanying Sequence Listing, and its sequence identifier is specified in Table 5 along with the GenBank Accession number.

CCCC(CCC)C(=O)O [valproate]
2.6: Φ: Rat L1 retroposon/pseudogene; 3′ flank. (rat hippocampus; 250 mg/kg twice daily, X61298 SEQ ID NO: 60)
2.2: Φ: Mouse LDL receptor member LR3 mRNA, complete cds. (rat hippocampus; 250 mg/kg twice daily, AF077847 SEQ ID NO: 70) | Φ: Mouse chromosome X clone BAC B22804, complete sequence. (rat hippocampus; 250 mg/kg twice daily, AF121351 SEQ ID NO: 71) | Φ: Rat mRNA for delta-4-3-ketosteroid 5-beta-reductase, complete cds. (rat hippocampus; 250 mg/kg twice daily, D17309 SEQ ID NO: 68) | Φ: Rat 3-alpha-hydroxysteroid dehydrogenase (3-alpha-HSD) mRNA, complete cds. (rat hippocampus; 250 mg/kg twice daily, M64393 SEQ ID NO: 69)
2.3: Φ: Rat strain Long Evans shaker myelin basic protein (Mbp) gene, intron 3, interrupted by ETn retrotransposon. (rat hippocampus; 250 mg/kg twice daily, AF076337 SEQ ID NO: 65) | Φ: Mouse BAC 171m12 MESDC1 (Mesdc1) and MESDC2 (Mesdc2) genes, complete cds. (rat hippocampus; 250 mg/kg twice daily, AF311213 SEQ ID NO: 67) | Φ: Rat (LxRN3) LINE 1 repeat element, ORF II. (rat hippocampus; 250 mg/kg twice daily, M60824 SEQ ID NO: 66)
−1.7: Φ: Rat calcincurin A mRNA, complete cds. (rat hippocampus; 250 mg/kg twice daily, M29275 SEQ ID NO: 98)
greater than 2 fold: change in expression level by RT-PCR: chromogranin B (CG-B) (NBFL cell line) | change in expression level by RT-PCR: dopa decarboxylase (DDC) (NBFL cell line) | change in expression level by RT-PCR: dopamine β-hydroxylase (DBH) (NBFL cell line) | change in expression level by RT-PCR: nidogoen (NID) (NBFL cell line) | change in expression level by RT-PCR: silver (SIL) (NBFL cell line)
1.9: Φ: pol polyprotein (rat hippocampus; 250 mg/kg twice daily, AAC31805 SEQ ID NO: 85) | Φ: CGI-83 protein (rat hippocampus; 250 mg/kg twice daily, AAD34078 SEQ ID NO: 89) | Φ: CGI-86 protein (rat hippocampus; 250 mg/kg twice daily, AAD34081 SEQ ID NO: 88) | Φ: Mouse chromosome 10, clone RP21-247L16, complete sequence. (rat hippocampus; 250 mg/kg twice daily, AC012302 SEQ ID NO: 87) | Φ: Mouse MHC class III region RD gene, partial eds; Bf, C2, G9A, NG22, G9, HSP70, HSP70, HSC70t, and smRNP genes, complete cds; G7A gene, partial cds; and unknown genes. (rat hippocampus; 250 mg/kg twice daily, AF109906 SEQ ID NO: 86) | Φ: Rat senescence marker protein 2B gene, exons 1 and 2. (rat hippocampus; 250 mg/kg twice daily, M29302 SEQ ID NO: 81) | Φ: Rat (clone pRHx1) hemopexin mRNA, complete cds. (rat hippocampus; 250 mg/kg twice daily, M62642 SEQ ID NO: 84) | Φ: Rat LEW/N clone D0N544 satellite DNA sequence. (rat hippocampus; 250 mg/kg twice daily, U06685 SEQ ID NO: 82) | Φ: Rat Eker rat-associated intracisternal-A-particle element. (rat hippocampus; 250 mg/kg twice daily, U23776 SEQ ID NO: 83)
2.1: Φ: Mouse chromosome 18 clone mgsriii-pl-3084 strain RIII Fibroblast cell line C 127, complete sequence. (rat hippocampus; 250 mg/kg twice daily, AC007665 SEQ ID NO: 75) | Φ: Rat mRNA for histamine N-methyltransferase, complete cds. (rat hippocampus; 250 mg/kg twice daily, D10693 SEQ ID NO: 72) | Φ: Rat long terminal repeat DNA sequence. (rat hippocampus; 250 mg/kg twice daily, L19707 SEQ ID NO: 73) | Φ: Rat kallikrein-binding protein (RKBP) gene. (rat hippocampus; 250 mg/kg twice daily, M67496 SEQ ID NO: 74) | Φ: {clone 6B1, intracisternal A-particle derived LTR fragment} [rats, Genomic, 208 nt]. (rat hippocampus; 250 mg/kg twice daily, S51653 SEQ ID NO: 76)
3.6: Φ: Rat L1 retrotransposon mlvi2-rn14, 5′UTR and putative RNA binding protein 1 gene, partial cds. (rat hippocampus; 250 mg/kg valproate twice daily, vs vehicle, U87602 SEQ ID NO: 56)
−1.6: Φ: Rat calmodulin mRNA, complete cds. (rat hippocampus; 250 mg/kg twice daily, AF178845 SEQ ID NO: 102) | Φ: rat myelin basic protein (mbp) gene mrna. (rat hippocampus; 250 mg/kg twice daily, K00512 SEQ ID NO: 99) | Φ: Mouse myelin proteolipid protein mRNA, complete cds. (rat hippocampus; 250 mg/kg twice daily, M15442 SEQ ID NO: 103) | Φ: Rat mRNA for amyloidogenic glycoprotein (rAG), cognate of Human A4 amyloid precursor protein. (rat hippocampus; 250 mg/kg twice daily, X07648 SEQ ID NO: 101) | Φ: Rat mRNA for Myelin-associated/Oligodendrocytic Basic Protein-81. (rat hippocampus; 250 mg/kg twice daily, X87900 SEQ ID NO: 100)
2.5: Φ: Mouse chromosome unknown clone rp21-657p21 strain 129S6/SvEvTac, complete sequence. (rat hippocampus; 250 mg/kg twice daily, AC005743 SEQ ID NO: 62) | Φ: Mouse TCR beta locus from bases 250554 to 501917 (section 2 of 3) of the complete sequence. (rat hippocampus; 250 mg/kg twice daily, AE000664 SEQ ID NO: 61)
2.8: Φ: Mouse TCR beta locus from bases 250554 to 501917 (section 2 of 3) of the complete sequence. (rat hippocampus; 250 mg/kg twice daily, AE000664 SEQ ID NO: 58)
2.4: Φ: Rat RT1-DOb gene, partial cds. (rat hippocampus; 250 mg/kg twice daily, AB008110 SEQ ID NO: 63) | Φ: Rat cytochrome P450 IV A1 (CYP4A1) gene, complete cds. (rat hippocampus; 250 mg/kg twice daily, M57718 SEQ ID NO: 64)
3.1: Φ: Mouse chromosome 18 clone RP23-16108, complete sequence. (rat hippocampus; 250 mg/kg twice daily, AC020967 SEQ ID NO: 57)
−1.5: Φ: Rat cytosolic branch chain aminotransferase BCATc mRNA, partial cds. (rat hippocampus; 250 mg/kg twice daily, AF 165887 SEQ ID NO: 111) | Φ: hypothetical protein (rat hippocampus; 250 mg/kg twice daily, CAB70864 SEQ ID NO: 117) | Φ: Rat mRNA for 14-3-3 protein theta-subtype, complete cds. (rat hippocampus; 250 mg/kg twice daily, D17614 SEQ ID NO: 109) | Φ: Rat clathrin heavy chain mRNA, complete cds. (rat hippocampus; 250 mg/kg twice daily, J03583 SEQ ID NO: 112) | Φ: Rat stress activated protein kinase alpha I mRNA, complete cds. (rat hippocampus; 250 mg/kg twice daily, L27111 SEQ ID NO: 105) | Φ: Murine phosphoprotein phosphatase mRNA, complete cds. (rat hippocampus; 250 mg/kg twice daily, M8 1475 SEQ ID NO: 114) | Φ: Rat nuclear-encoded mitochondrial ATP synthase beta-subunit mRNA, 5′ end. (rat hippocampus; 250 mg/kg twice daily, M25301 SEQ ID NO: 107) | Φ: Rat thymosin beta-4 mRNA, complete cds. (rat hippocampus; 250 mg/kg twice daily, M34043 SEQ ID NO: 104) | Φ: {clone E512, estrogen induced gene} [rats, Sprague-Dawley, hypothalamus, mRNA Partial, 259 nt]. (rat hippocampus; 250 mg/kg twice daily, S74327 SEQ ID NO: 118) | Φ: Rat protein kinase C-binding protein NELL2 mRNA, complete cds. (rat hippocampus; 250 mg/kg twice daily, U48245 SEQ ID NO: 106) | Φ: Mouse hippocampal amyloid precursor protein mRNA, complete cds. (rat hippocampus; 250 mg/kg twice daily, U84012 SEQ ID NO: 116) | Φ: Rat CaMII gene, exon 1 (and joined cds). (rat hippocampus; 250 mg/kg twice daily, X13833 SEQ ID NO: 113) | Φ: Mouse rac1 gene. (rat hippocampus; 250 mg/kg twice daily, X57277 SEQ ID NO: 115) | Φ: Rat mRNA for ubiquitin and ribosomal protein S27a. (rat hippocampus; 250 mg/kg twice daily, X81839 SEQ ID NO: 108) | Φ: Rat MAL protein gene and mRNA. (rat hippocampus; 250 mg/kg twice daily, X82557 SEQ ID NO: 110)
1.8: Φ: Mouse BAC-146N21 Chromosome X contains iduronate-2-sulfatase gene; complete sequence. (rat hippocampus; 250 mg/kg twice daily, AC002315 SEQ ID NO: 96) | Φ: Mouse (Mus musculus domesticus) X chromosome region similar to Human DXS963E, complete sequence. (rat hippocampus; 250 mg/kg twice daily, AF130357 SEQ ID NO: 97) | Φ: Rat gene encoding tyrosine aminotransferase. (rat hippocampus; 250 mg/kg twice daily, AJ010709 SEQ ID NO: 93) | Φ: unnamed protein product (rat hippocampus; 250 mg/kg twice daily, BAB15010 SEQ ID NO: 90) | Φ: Mouse mRNA for plexin 2, complete cds. (rat hippocampus; 250 mg/kg twice daily, D86949 SEQ ID NO: 95) | Φ: Rat Eker rat-associated intracisternal-A-particle element. (rat hippocampus; 250 mg/kg twice daily, U23776 SEQ ID NO: 94) | Φ: Rat mRNA for cdc2 promoter region. (rat hippocampus; 250 mg/kg twice daily, X60767 SEQ ID NO: 92) | Φ: Rat mRNA for Tsx gene. (rat hippocampus; 250 mg/kg twice daily, X99797 SEQ ID NO: 91)
2: Φ: Mouse TCR beta locus from bases 250554 to 501917 (section 2 of 3) of the complete sequence. (rat hippocampus; 250 mg/kg twice daily, AE000664 SEQ ID NO: 79) | Φ: Mouse Naip3 gene, exon 1; neuronal apoptosis inhibitory protein 1 (Naip 1) and general transcription factor IIH polypeptide 2 (Gtf2h2) genes, complete cds. (rat hippocampus; 250 mg/kg twice daily, AF242432 SEQ ID NO: 80) | Φ: Rat mRNA for Sulfotransferase K2. (rat hippocampus; 250 mg/kg twice daily, AJ238392 SEQ ID NO: 77) | Φ: Rat mRNA for Mx3 protein. (rat hippocampus; 250 mg/kg twice daily, X52713 SEQ ID NO: 78)
2.7: Φ: Rat Sprague-Dawley UDP-glucuronosyltransferase (UGT2B12) mRNA, complete cds. (rat hippocampus; 250 mg/kg twice daily, U06273 SEQ ID NO: 59)
